Experiment: Example 2: phase 3 trial, enavogliflozin 0.3 mg vs dapagliflozin 10 mg once a day for 24 weeks added to metformin in patients with type 2 diabetes (same efficacy, exploratory and safety endpoints)
Format: in vivo, human
Conditions: for HDL-C change from baseline, ANCOVA LS mean (SE) / HDL-C change from baseline, Mean (SD) / HDL-C change from baseline, Median / HDL-C, Mean (SD) / HDL-C, Median / LDL-C change from baseline, ANCOVA LS mean (SE) / LDL-C change from baseline, Mean (SD) / LDL-C change from baseline, Median / LDL-C, Mean (SD) / LDL-C, Median / Triglycerides change from baseline, ANCOVA LS mean (SE) / Triglycerides change from baseline, Mean (SD) / Triglycerides change from baseline, Median / Triglycerides, Mean (SD) / Triglycerides, Median: mPPS1; for Diastolic blood pressure change from baseline, ANCOVA LS mean (SE) / Diastolic blood pressure change from baseline, Mean (SD) / Diastolic blood pressure change from baseline, Median / Diastolic blood pressure, Mean (SD) / Diastolic blood pressure, Median / Systolic blood pressure change from baseline, ANCOVA LS mean (SE) / Systolic blood pressure change from baseline, Mean (SD) / Systolic blood pressure change from baseline, Median / Systolic blood pressure, Mean (SD) / Systolic blood pressure, Median: mPPS2
Procedure: Subjects who met the inclusion/exclusion criteria were administered a placebo of the clinical trial drug under single-blind (subject blinding) conditions during a 2-week run-in period while continuing to receive metformin. […] The randomized subjects were administered two tablets of the clinical trial drug for each administration group once a day, and then visited the institution at weeks 6, 12, 18, and 24 during the 24-week administration period to conduct efficacy and safety evaluations.
• 1. Change in HbA1c at week 24 after administration of clinical trial drug compared to Visit 2 (randomization)
• 1. Change in HbA1c at each time point of weeks 6, 12, and 18 after administration of clinical trial drug compared to Visit 2 (randomization) • 2. Change in FPG at each time point of weeks 6, 12, 18, and 24 after administration of clinical trial drug compared to Visit 2 (randomization) • 3. Proportion of subjects achieving HbA1c<7% at each time point of weeks 6, 12, 18, and 24 after administration of clinical trial drug • 4. Proportion of subjects achieving HbA1c<6.5% at each time point of weeks 6, 12, 18, and 24 after administration of clinical trial drug • 5. Proportion of subjects achieving therapeutic response (HbA1c change (HbA1c at Visit 2-HbA1c at each evaluation time point)>0.5% or HbA1c<7% at each evaluation time point compared to Visit 2 (randomization)) at each time point of weeks 6, 12, 18 and 24 after administration of clinical trial drug
• 1. Change in fasting c-peptide at each time point of weeks 6, 12, 18, and 24 after administration of clinical trial drug compared to Visit 2 (randomization) • 2. Change in body weight at each time point of weeks 6, 12, 18, and 24 after administration of clinical trial drug compared to Visit 2 (randomization) • 3. Change in fasting lipid concentration (total cholesterol, LDL-C, HDL-C, and triglycerides) at each time point of weeks 6, 12, 18, and 24 after administration of clinical trial drug compared to Visit 2 (randomization) • 4. Changes in systolic or diastolic blood pressure at each time point of weeks 6, 12, 18, and 24 after administration of clinical trial drug compared to Visit 2 (randomization) • 5. Changes in β-cell function and insulin resistance measured by HOMA-β and HOMA-IR at each time point of weeks 6, 12, 18, and 24 after administration of clinical trial drug compared to Visit 2 (randomization) • 6. Changes in renal function-related indicators (UACR, UGCR) measured by UACR at each time point of weeks 6, 12, 18, and 24 after administration of clinical trial drug compared to Visit 2 (randomization) • 7. Changes in obesity-related indicators (adiponectin, leptin) at each time point of weeks 6, 12, 18, and 24 after administration of clinical trial drug compared to Visit 2 (randomization)

CCOc1ccc(Cc2cc([C@@H]3O[C@H](CO)[C@@H](O)[C@H](O)[C@H]3O)ccc2Cl)cc1 [Dapagliflozin, reference compound]
Leptin change from baseline, ANCOVA LS mean (SE) (Week 12, PPS): -2.70 ng/mL
Leptin change from baseline, Mean (SD) (Week 12, PPS): -2.70 ng/mL
Leptin change from baseline, Median (Week 12, PPS): -1.94 ng/mL
Leptin, Mean (SD) (Week 12, PPS): 9.07 ng/mL
Leptin, Median (Week 12, PPS): 6.05 ng/mL
UACR change from baseline, ANCOVA LS mean (SE) (Week 12, PPS): -3.38 g/kg
UACR change from baseline, Mean (SD) (Week 12, PPS): -8380 mg/kg
UACR change from baseline, Median (Week 12, PPS): -1.80 g/kg
UACR, Mean (SD) (Week 12, PPS): 49420 mg/kg
UACR, Median (Week 12, PPS): 11.95 g/kg
UGCR change from baseline, ANCOVA LS mean (SE) (Week 12, PPS): 45.14 mg/mg
UGCR change from baseline, Mean (SD) (Week 12, PPS): 43.59 mg/mg
UGCR change from baseline, Median (Week 12, PPS): 40.62 mg/mg
UGCR, Mean (SD) (Week 12, PPS): 45.57 mg/mg
UGCR, Median (Week 12, PPS): 40.89 mg/mg
HDL-C change from baseline, ANCOVA LS mean (SE) (Week 12): 2.25(0.62) mg/dL
HDL-C change from baseline, Mean (SD) (Week 12): 2.65(5.61) mg/dL
HDL-C change from baseline, Median (Week 12): 2.00 mg/dL
HDL-C, Mean (SD) (Week 12): 49.29(9.21) mg/dL
HDL-C, Median (Week 12): 49.00 mg/dL
LDL-C change from baseline, ANCOVA LS mean (SE) (Week 12): 0.56(1.73) mg/dL
LDL-C change from baseline, Mean (SD) (Week 12): 1.33(16.02) mg/dL
LDL-C change from baseline, Median (Week 12): 2.00 mg/dL
LDL-C, Mean (SD) (Week 12): 77.54(25.39) mg/dL
LDL-C, Median (Week 12): 77.00 mg/dL
Triglycerides change from baseline, ANCOVA LS mean (SE) (Week 12): −10.10(4.92) mg/dL
Triglycerides change from baseline, Mean (SD) (Week 12): −14.35(70.12) mg/dL
Triglycerides change from baseline, Median (Week 12): -6.00 mg/dL
Triglycerides, Mean (SD) (Week 12): 119.06(50.67) mg/dL
Triglycerides, Median (Week 12): 104.00 mg/dL
Diastolic blood pressure change from baseline, ANCOVA LS mean (SE) (Week 12): −4.35 mmHg
Diastolic blood pressure change from baseline, Mean (SD) (Week 12): −4.06 mmHg
Diastolic blood pressure change from baseline, Median (Week 12): −3.00 mmHg
Diastolic blood pressure, Mean (SD) (Week 12): 71.86 mmHg
Diastolic blood pressure, Median (Week 12): 72.00 mmHg
Systolic blood pressure change from baseline, ANCOVA LS mean (SE) (Week 12): −6.12(1.07) mmHg
Systolic blood pressure change from baseline, Mean (SD) (Week 12): −5.86(11.46) mmHg
Systolic blood pressure change from baseline, Median (Week 12): −6.00 mmHg
Systolic blood pressure, Mean (SD) (Week 12): 121.46(12.64) mmHg
Systolic blood pressure, Median (Week 12): 123.00 mmHg
Adiponectin change from baseline, ANCOVA LS mean (SE) (Week 18, PPS): 1.29 µg/mL
Adiponectin change from baseline, Mean (SD) (Week 18, PPS): 1.28 µg/mL
Adiponectin change from baseline, Median (Week 18, PPS): 0.73 ng/mL
Adiponectin, Mean (SD) (Week 18, PPS): 7.98 µg/mL
Adiponectin, Median (Week 18, PPS): 7.08 µg/mL
HOMA-IR change from baseline, ANCOVA LS mean (SE) (Week 18, PPS): −1.47
HOMA-IR change from baseline, Mean (SD) (Week 18, PPS): −1.61
HOMA-IR change from baseline, Median (Week 18, PPS): −1.07
HOMA-IR, Mean (SD) (Week 18, PPS): 2.28
HOMA-IR, Median (Week 18, PPS): 2.07
HOMA-β change from baseline, ANCOVA LS mean (SE) (Week 18, PPS): 13.49
HOMA-β change from baseline, Mean (SD) (Week 18, PPS): 13.46
HOMA-β change from baseline, Median (Week 18, PPS): 9.80
HOMA-β, Mean (SD) (Week 18, PPS): 58.55
HOMA-β, Median (Week 18, PPS): 51.80
Leptin change from baseline, ANCOVA LS mean (SE) (Week 18, PPS): -1.23 ng/mL
Leptin change from baseline, Mean (SD) (Week 18, PPS): -1.20 ng/mL
Leptin change from baseline, Median (Week 18, PPS): -1.37 ng/mL
Leptin, Mean (SD) (Week 18, PPS): 10.72 ng/mL
Leptin, Median (Week 18, PPS): 6.16 ng/mL
UACR change from baseline, ANCOVA LS mean (SE) (Week 18, PPS): -12.95 g/kg
UACR change from baseline, Mean (SD) (Week 18, PPS): -20540 mg/kg
UACR change from baseline, Median (Week 18, PPS): -1.75 g/kg
UACR, Mean (SD) (Week 18, PPS): 37260 mg/kg
UACR, Median (Week 18, PPS): 11.60 g/kg
UGCR change from baseline, ANCOVA LS mean (SE) (Week 18, PPS): 42.72 mg/mg
UGCR change from baseline, Mean (SD) (Week 18, PPS): 41.06 mg/mg
UGCR change from baseline, Median (Week 18, PPS): 40.72 mg/mg
UGCR, Mean (SD) (Week 18, PPS): 43.00 mg/mg
UGCR, Median (Week 18, PPS): 40.86 mg/mg
HDL-C change from baseline, ANCOVA LS mean (SE) (Week 18): 3.08(0.67) mg/dL
HDL-C change from baseline, Mean (SD) (Week 18): 3.17(5.82) mg/dL
HDL-C change from baseline, Median (Week 18): 2.00 mg/dL
HDL-C, Mean (SD) (Week 18): 49.93(9.16) mg/dL
HDL-C, Median (Week 18): 49.00 mg/dL
LDL-C change from baseline, ANCOVA LS mean (SE) (Week 18): 2.58(1.89) mg/dL
LDL-C change from baseline, Mean (SD) (Week 18): 3.27(20.01) mg/dL
LDL-C change from baseline, Median (Week 18): 3.00 mg/dL
LDL-C, Mean (SD) (Week 18): 79.71(26.69) mg/dL
LDL-C, Median (Week 18): 80.00 mg/dL
Triglycerides change from baseline, ANCOVA LS mean (SE) (Week 18): 1.88(6.04) mg/dL
Triglycerides change from baseline, Mean (SD) (Week 18): −4.10(62.62) mg/dL
Triglycerides change from baseline, Median (Week 18): 1.00 mg/dL
Triglycerides, Mean (SD) (Week 18): 130.88(70.92) mg/dL
Triglycerides, Median (Week 18): 110.00 mg/dL
Diastolic blood pressure change from baseline, ANCOVA LS mean (SE) (Week 18): −4.10 mmHg
Diastolic blood pressure change from baseline, Mean (SD) (Week 18): −3.94 mmHg
Diastolic blood pressure change from baseline, Median (Week 18): −2.50 mmHg
Diastolic blood pressure, Mean (SD) (Week 18): 72.08 mmHg
Diastolic blood pressure, Median (Week 18): 71.00 mmHg
Systolic blood pressure change from baseline, ANCOVA LS mean (SE) (Week 18): −5.97(1.15) mmHg
Systolic blood pressure change from baseline, Mean (SD) (Week 18): −5.43(12.97) mmHg
Systolic blood pressure change from baseline, Median (Week 18): −5.00 mmHg
Systolic blood pressure, Mean (SD) (Week 18): 122.27(12.91) mmHg
Systolic blood pressure, Median (Week 18): 122.00 mmHg
Adiponectin change from baseline, ANCOVA LS mean (SE) (Week 24, PPS): 1.69 µg/mL
Adiponectin change from baseline, Mean (SD) (Week 24, PPS): 1.72 µg/mL
Adiponectin change from baseline, Median (Week 24, PPS): 1.06 ng/mL
Adiponectin, Mean (SD) (Week 24, PPS): 8.35 µg/mL
Adiponectin, Median (Week 24, PPS): 7.19 µg/mL
HOMA-IR change from baseline, ANCOVA LS mean (SE) (Week 24, PPS): −1.31
HOMA-IR change from baseline, Mean (SD) (Week 24, PPS): −1.47
HOMA-IR change from baseline, Median (Week 24, PPS): −1.17
HOMA-IR, Mean (SD) (Week 24, PPS): 2.39
